Reference: patent US20110124609A1, “Method of Preventing Type I Diabetes” (Wisconsin Alumni Research Foundation, priority 2009, published 2011)
“Also recorded” adds a separate entry of the source. Each block holds one compound with its values, some of them ahead of it.

Legend:
[1] = 2AMD study: serum calcium analysis (atomic absorption); format: in vivo, mouse; conditions: 200 pg and 300 pg 2AMD per day in diet; NOD mice; over 30 weeks (FIG. 2)
Source text: Diet. Breeding pairs were fed LabDiet™ Mouse Diet 5010 ad libitum (PMI Nutrition International, St. Louis, Mo.). Experimental mice were fed LabDiet™ Mouse Diet 5K52 meal form (PMI Nutrition International, St. Louis, Mo.). […] Serum Calcium Analysis. Blood was collected from maxillary cheek of each mouse weekly from 8 weeks to 200 days of age.

[2] = 2AMD study: body weight of NOD mice; format: in vivo, mouse; conditions: 200 pg and 300 pg 2AMD per day in diet, over 200 days (FIG. 3)
Source text: Diet. Breeding pairs were fed LabDiet™ Mouse Diet 5010 ad libitum (PMI Nutrition International, St. Louis, Mo.). Experimental mice were fed LabDiet™ Mouse Diet 5K52 meal form (PMI Nutrition International, St. Louis, Mo.). […] Evaluation of Diabetic Status. […] Whole blood was centrifuged to obtain serum.

NOD mice [3] = experiment: 2AMD Type 1 Diabetes Prevention Study: diabetes incidence in NOD mice; format: in vivo, mouse; conditions: female NOD mice
Experimental: Diet. Breeding pairs were fed LabDiet™ Mouse Diet 5010 ad libitum (PMI Nutrition International, St. Louis, Mo.). Experimental mice were fed LabDiet™ Mouse Diet 5K52 meal form (PMI Nutrition International, St. Louis, Mo.). […] At eight weeks of age, mice were placed on 1 of 4 experimental diets: 1) chow, 2) 5010+50 ng 1,25(OH)2D3, or 3) 5010+200 pg and 4) 5010+300 pg 2AMD. In diets/treatments containing 1,25(OH)2D3 or 2AMD, the hormone was added to 1% Wesson® oil and mixed into the diet.
(§1) Evaluation of Diabetic Status. […] Whole blood was centrifuged to obtain serum.

NOD mouse = conditions: of 1,25-(OH)2D3, Zella et al., 2003; cited from earlier work
NOD mice [4] = experiment: 2MD Type 1 Diabetes Prevention Study: diabetes incidence in NOD mice; format: in vivo, mouse; conditions: for Incidence of Type 1 Diabetes: female NOD mice
Source text: as §1

[5] = background, 19-nor-analogs; cited from earlier work
cellular differentiation = conditions: background, 19-nor-analogs; cited from earlier work
[6] = 2MD study: body weight of NOD mice; conditions: for Weights: mean, n = 12, in g (unit assumed)
Experimental: Diet. […] At eight weeks of age, mice were then provided 1 of 4 experimental diets: diet 11 only or diet 11+50 ng 1,25(OH)2D3, diet 11 plus 400 ng 2 MP or diet 11+500 pg 2MD. All purified diets were supplemented with vegetable oil containing fat soluble vitamins A, E, D and K (Suda et al., 1970, J. Nutr. 100: 1049-1052 [diet 11]). In diets containing 1,25(OH)2D3, 2 MP or 2MD, the compounds were added to 1% Wesson® oil and mixed into the purified diet. Diets were fed in agar form (Hayes et al., 1987, J. Nutr. 117:857-865) at 3.5 g food/mouse/day and were replaced three times per week.
Evaluation of Diabetic Status. All experimental mice were weighed weekly and urinalysis was performed weekly starting at 10 weeks of age—Diastix® (Bayer, Elkhart, Ind.) were used to determine glucose levels. If a Diastix® reading was above 1000 mg/dl, the mice were bled from maxillary cheek following a four-hour fast. Whole blood was centrifuged to obtain serum. Concentration of glucose in serum was measured using a enzymatic-colorimetric assay (Glucose Liquicolor®, Stanbio Laboratory, Boerne, Tex.) followed by spectrophotometric analysis. Animals that had two fasting glucose analysis above 300 mg/dl were diagnosed as diabetic and sacrificed via CO2 asphyxiation.

[7] = 2MD study: serum calcium analysis (atomic absorption); conditions: for serum calcium: NOD mice; for Serum Calcium Levels: mean, n = 12, in mg/dL (unit assumed)
Experimental: Diet. […] Female pups were weaned at three weeks and placed immediately on a purified diet (Suda et al., 1974, J. Nutr. 100: 1049-1052). At eight weeks of age, mice were then provided 1 of 4 experimental diets: diet 11 only or diet 11+50 ng 1,25(OH)2D3, diet 11 plus 400 ng 2 MP or diet 11+500 pg 2MD. All purified diets were supplemented with vegetable oil containing fat soluble vitamins A, E, D and K (Suda et al., 1970, J. Nutr. 100: 1049-1052 [diet 11]). In diets containing 1,25(OH)2D3, 2 MP or 2MD, the compounds were added to 1% Wesson® oil and mixed into the purified diet. Diets were fed in agar form (Hayes et al., 1987, J. Nutr. 117:857-865) at 3.5 g food/mouse/day and were replaced three times per week.
Serum Calcium Analysis. Blood was collected from maxillary cheek of each mouse at 6, 8, 9, 14.3, 15.3 and 28.6 weeks of age. Serum was separated by centrifugation and diluted 1:40 in a 0.1% LaCl2 solution. Calcium concentration was determined by atomic absorption spectrometry (Spectrometer 3110®, Perkin Elmer, Norwalk, Conn.).

[8] = Group 8, 0.5 ng 2MD, age 6 weeks
[9] = Group 8, 0.5 ng 2MD, age 8 weeks
[10] = Group 8, 0.5 ng 2MD, age 9 weeks
[11] = Group 8, 0.5 ng 2MD, age 14.3 weeks
[12] = Group 8, 0.5 ng 2MD, age 15.3 weeks
[13] = Group 8, 0.5 ng 2MD, age 28.6 weeks
[14] = Group 10, 400 ng 2MP, age 6 weeks
[15] = Group 10, 400 ng 2MP, age 8 weeks
[16] = Group 10, 400 ng 2MP, age 9 weeks
[17] = Group 10, 400 ng 2MP, age 14.3 weeks
[18] = Group 10, 400 ng 2MP, age 15.3 weeks
[19] = Group 10, 400 ng 2MP, age 28.6 weeks

Compound: 2α-methyl-19-nor-20(S)-1α,25-dihydroxyvitamin D3 [2AMD]
- serum calcium / hypercalcemia [1]: no statistically significant increase in serum calcium; also recorded: without hypercalcemia
- body weight [2]: no statistically significant change in body weight; also recorded: not altered
- diabetes incidence at 200 days (FIG. 1) (NOD mice [3]; 200 pg and 300 pg 2AMD daily in diet, versus no treatment): statistically significant reduced incidence of diabetes
- Type 1 diabetes disease incidence (NOD mice [3]; 200 pg and 300 pg 2AMD per day in 5010 diet, from 8 weeks to 200 days of age): 8%

Compound: C=C1/C(=C\C=C2/CCC[C@]3(C)[C@@H]([C@H](C)CCCC(C)(C)O)CC[C@@H]23)C[C@@H](O)C[C@@H]1O [1,25(OH)2D3, 1α,25-dihydroxy-vitamin D3]
- prevention of Type 1 diabetes (NOD mouse): completely prevent Type 1 diabetes
- Incidence of Type 1 Diabetes (NOD mice [4]; 50 ng per day in diet 11, 200 days, n = 24): 4.2%
- prevention of diabetes (NOD mice [4]; 50 ng/day 1,25(OH)2D3 in diet 11, NOD mice): prevented diabetes
- protection against T1DM (NOD mice [3]; 50 ng 1,25(OH)2D3 per day in 5010 diet): completely protected

Compound: C[C@H](CCCC(C)(C)O)[C@H]1CC[C@H]2/C(=C/C=C3C[C@@H](O)C[C@H](O)C3)CCC[C@]12C [1α,25-dihydroxy-19-nor-vitamin D3]
- calcium mobilizing activity [5]: very low calcium mobilizing activity
- potency for inducing cellular differentiation (cellular differentiation): high potency

- Serum Calcium Levels [7, 8]: 11.42
- Serum Calcium Levels [7, 9]: 11.45
- Serum Calcium Levels [7, 10]: 11.55
- Serum Calcium Levels [7, 11]: 11.52
- Serum Calcium Levels [7, 12]: 11.33
- Serum Calcium Levels [7, 13]: 11.37
Compound: C=C1[C@H](O)CC(=C/C=C2\CCC[C@@]3(C)C2CCC3[C@@H](C)CCCC(C)(C)O)C[C@H]1O (stereo partly drawn) [2MD, 2-methylene-19-nor-20(S)-1,25-dihydroxyvitamin D3]
- body weight (FIG. 5) ([6]; 0.5 ng 2MD per day in diet 11, NOD mice, over 200 days): no statistically significant change in body weight
- Weights ([6]; Group 8, 0.5 ng 2MD, age 3 weeks): 13.33
- Weights [6, 8]: 21.87
- Weights [6, 9]: 23.78
- Weights [6, 10]: 24.94
- Weights [6, 11]: 27.85
- Weights [6, 12]: 27.82
- Weights [6, 13]: 29.51
- serum calcium ([7]; 0.5 ng 2MD per day in diet 11, over 30 weeks (FIG. 6)): no statistically significant increase in serum calcium; also recorded: moderate elevation of calcium
- Incidence of Type 1 Diabetes (NOD mice [4]; 0.5 ng per day in diet 11, 200 days, n = 12): 0.0%
- prevention of diabetes / diabetes incidence (FIG. 4) (NOD mice [4]; 0.5 ng/day 2MD in diet 11, NOD mice, 200 days): statistically significant reduced incidence of diabetes; also recorded: prevented diabetes

- serum calcium ([7]; 400 ng 2 MP per day in diet 11): moderate elevation of calcium
- Serum Calcium Levels [7, 14]: 11.57
- Serum Calcium Levels [7, 15]: 11.57
- Serum Calcium Levels [7, 16]: 11.55
- Serum Calcium Levels [7, 17]: 11.62
- Serum Calcium Levels [7, 18]: 11.77
- Serum Calcium Levels [7, 19]: 11.66
Compound: C=C1C(O)CC(=CC=C2CCCC3(C)C2CCC3C(C)C)CC1O (stereo not drawn) [2MP, 1α-hydroxy-2-methylene-19-nor-homopregnacalciferol, reference compound]
- Weights ([6]; Group 10, 400 ng 2MP, age 3 weeks): 13.60
- Weights [6, 14]: 22.03
- Weights [6, 15]: 23.74
- Weights [6, 16]: 24.63
- Weights [6, 17]: 26.30
- Weights [6, 18]: 26.81
- Weights [6, 19]: 27.64
- protection against diabetes (NOD mice [4]; 400 ng 2 MP per day in diet 11, NOD mice): no protection against diabetes
- Incidence of Type 1 Diabetes (NOD mice [4]; 400 ng per day in diet 11, 200 days, n = 12): 33.0%
